Experimental data from US5405861A, “Triazole compounds and antifungal compositions thereof” (Takeda Chemical Industries, Co., Ltd., priority 1989, dated 1995).
Where a name gives a salt, the structure may show the parent alone.

test system: Candida albicans (IFO 0538); assay: Antifungal activity against Candida albicans, paper disc growth inhibition zone (Tables 5 and 6); assay type: cell-based; conditions: 48 h, A medium (yeast nitrogen base agar), 28° C., 2 days incubation; read-out: Inhibition zone diameter
Experimental: The antifungal activities of the compounds (I) were evaluated by the following method: a sheet of filter paper disc (manufactured by Toyo Seisakusho, 8 mm in diameter) soaked in a 1000 μg/ml solution of a compound (I) in methanol was placed on an agar plate, which was incubated at 28° C. for 2 days, and the diameter of the growth inhibition zone around the filter paper disc was measured. The following culture media were used:
A: yeast nitrogen base agar medium
B: yeast nitrogen base agar medium (pH 7.0)

Going from `C[C@@H](SCCn1cncn1)[C@](O)(Cn1cncn1)c1ccc(F)cc1F` (relative stereo) [Compound 13] to `C[C@H]([C@](O)(Cn1cncn1)c1ccc(F)cc1F)S(=O)(=O)CCn1cncn1` (relative stereo) [Compound 14], the zone of inhibition at 1000 µg/mL falls from 34 mm to 22 mm.

Compared with `OC(CSCCSCCn1ccnc1)(Cn1cncn1)c1ccc(F)cc1F` (stereo not drawn) [Compound 7], `OC(CSCCc1ccncc1)(Cn1cncn1)c1ccc(F)cc1F` (stereo not drawn) [Compound 8] is higher in zone of inhibition at 1000 µg/mL: 18 mm for the first, 25 mm for the second.

In the case of `CC(SCC(O)(Cn1cncn1)c1ccc(F)cc1F)c1ccncc1` (stereo not drawn) [Compound 9], the zone of inhibition at 1000 µg/mL is reported as 21 mm.

same assay, conditions: 48 h, pH 7, B medium (yeast nitrogen base agar, pH 7.0), 28° C., 2 days incubation; read-out: Inhibition zone diameter

Compared with `C[C@@H](S)[C@](O)(Cn1cncn1)c1ccc(F)cc1F` [Compound 43, (2R,3R)-2-(2,4-difluorophenyl)-3-mercapto-1-(1H-1,2,4-triazol-1-yl)-2-butanol], `CC(=O)S[C@@H](C)[C@](O)(Cn1cncn1)c1ccc(F)cc1F` (relative stereo) [Compound 61] is lower in zone of inhibition at 1000 µg/mL: 40 mm for the first, 30 mm for the second.

First: Cc1oc(=O)oc1CS[C@H](C)[C@](O)(Cn1cncn1)c1ccc(F)cc1F (racemic) [Compound 56, (2RS,3RS)-2-(2,4-difluorophenyl)-3-(5-methyl-2-oxo-1,3-dioxol-4-yl)methylthio-1-(1H-1,2,4-triazol-1-yl)-2-butanol]
Second: C[C@@H](SCc1nncn1C)[C@](O)(Cn1cncn1)c1ccc(F)cc1F [Compound 95]
The zone of inhibition at 1000 µg/mL of the first is higher: 30 mm for the first, 28 mm for the second.

First: OC(CSCCSCCn1cncn1)(Cn1cncn1)c1ccc(F)cc1F (stereo not drawn) [Compound 21]
Second: C[C@@H](SCCSCCn1cncn1)[C@](O)(Cn1cncn1)c1ccc(F)cc1F (relative stereo) [Compound 22]
The zone of inhibition at 1000 µg/mL of the first is lower: 20 mm for the first, 25 mm for the second.

`Cn1nnnc1SCCSCC(O)(Cn1cncn1)c1ccc(F)cc1F` (stereo not drawn) [Compound 20] and `Cn1ccnc1SCCSCC(O)(Cn1cncn1)c1ccc(F)cc1F` (stereo not drawn) [Compound 18] are the same in zone of inhibition at 1000 µg/mL: 25 mm for the first, 25 mm for the second.

Going from `CC(C)n1ccnc1CS[C@H](C)[C@](O)(Cn1cncn1)c1ccc(F)cc1F` [Compound 102] to `CCn1ccnc1CS[C@H](C)[C@](O)(Cn1cncn1)c1ccc(F)cc1F` [Compound 101], the zone of inhibition at 1000 µg/mL rises from 35 mm to 38 mm.

First: C[C@@H](SCc1nccs1)[C@](O)(Cn1cncn1)c1ccc(F)cc1F (relative stereo) [Compound 38]
Second: C[C@@H](SCc1nccn1CC(F)(F)C(F)F)[C@](O)(Cn1cncn1)c1ccc(F)cc1F (relative stereo) [Compound 30]
The zone of inhibition at 1000 µg/mL of the first is higher: 47 mm for the first, 40 mm for the second.

First: OC(CSCCSCc1ccncc1)(Cn1cncn1)c1ccc(F)cc1F (stereo not drawn) [Compound 19]
Second: OC(CSCCSc1ccncc1)(Cn1cncn1)c1ccc(F)cc1F (stereo not drawn) [Compound 24]
The zone of inhibition at 1000 µg/mL of the first is higher: 30 mm for the first, 25 mm for the second.

Going from `C[C@@H](SCCSCCn1ccnc1)[C@](O)(Cn1cncn1)c1ccc(F)cc1F` (relative stereo) [Compound 23] to `C[C@@H](SCc1cn2ccccc2n1)[C@](O)(Cn1cncn1)c1ccc(F)cc1F` (relative stereo) [Compound 27], the zone of inhibition at 1000 µg/mL rises from 25 mm to 45 mm.

With `Cn1ccnc1CSCCSCC(O)(Cn1cncn1)c1ccc(F)cc1F` (stereo not drawn) [Compound 17] the zone of inhibition at 1000 µg/mL was 25 mm.

same assay, conditions: A medium (yeast nitrogen base agar), 28° C., 2 days incubation

With `CC(SCC(O)(Cn1cncn1)c1ccc(F)cc1F)c1ccncc1` (stereo not drawn) [Compound 11] the Inhibition zone diameter was 24 mm.

test system: Candida albicans; assay: Infection-preventing effect in experimental infection in mice, Method 1 (Table 7-1); assay type: in vivo, Crj:CDF1 mice; conditions: Candida albicans, po, 168 h, p.o., given 0 and 2 hours after infection; survival 7 days after infection; total dose; read-out: ED50
Experimental: Method 1 (Table 7-1): To 5-week-old Crj:CDF1 mice the minimum lethal dose of Candida albicans was inoculated intravenously. The test drug was given twice 0 and 2 hours after infection. The effectiveness of the drug was expressed in ED50 values calculated by the Reed and Muench method from the survival rate 7 days after infection. The ED50 values were calculated based on the total dose given on the two occasions.

Going from `C[C@@H](S)[C@](O)(Cn1cncn1)c1ccc(F)cc1F` [Compound 43, (2R,3R)-2-(2,4-difluorophenyl)-3-mercapto-1-(1H-1,2,4-triazol-1-yl)-2-butanol] to `C[C@@H](SCc1nccn1C)[C@](O)(Cn1cncn1)c1ccc(F)cc1F` (relative stereo) [16(hydrochloride)], the ED50 rises from 0.18 mg/kg to 0.71 mg/kg (3.9-fold).

same assay, conditions: Candida albicans, sc, 168 h, s.c., given 0 and 2 hours after infection; survival 7 days after infection; total dose; read-out: ED50

First: C[C@@H](S)[C@](O)(Cn1cncn1)c1ccc(F)cc1F [Compound 43, (2R,3R)-2-(2,4-difluorophenyl)-3-mercapto-1-(1H-1,2,4-triazol-1-yl)-2-butanol]
Second: C[C@@H](SCc1nccs1)[C@](O)(Cn1cncn1)c1ccc(F)cc1F (relative stereo) [38(hydrochloride)]
The ED50 of the first is 18-fold lower: 0.18 mg/kg for the first, 3.2 mg/kg for the second.

Going from `Cc1oc(=O)oc1CS[C@H](C)[C@](O)(Cn1cncn1)c1ccc(F)cc1F` (racemic) [Compound 56, (2RS,3RS)-2-(2,4-difluorophenyl)-3-(5-methyl-2-oxo-1,3-dioxol-4-yl)methylthio-1-(1H-1,2,4-triazol-1-yl)-2-butanol] to `C[C@@H](SCc1cn2ccccc2n1)[C@](O)(Cn1cncn1)c1ccc(F)cc1F` (relative stereo) [27(hydrochloride)], the ED50 rises from 2 mg/kg to 3.2 mg/kg (1.6-fold).

Work on `C[C@@H](SCc1nccn1CC(F)(F)C(F)F)[C@](O)(Cn1cncn1)c1ccc(F)cc1F` (relative stereo) [30(hydrochloride)] yielded an ED50 of 0.88 mg/kg.
